Results published in patent publication US20120065126A1, “Pharmaceutical Compositions Containing Antifungal Peptides” (BASF SE, priority 2009, published 2012).

Experiments:
[1] = system: Escherichia coli (Stratagene, BLR); test: Short-term effect (CFU); type: cell-based
Experimental: (§1) For this purpose, the procedure was as follows.
LB growth medium (Becton, Dickinson and Company, Sparks, USA) […] make up to 1 liter, set pH 7
The growth test was effected as follows: 10 ml of LB medium were inoculated with E. coli and incubated at 37° C. and 200 rpm overnight.
1.5 ml reaction vessels were each filled with 1 ml of LB medium and inoculated with the E. coli suspension from the overnight culture. The E. coli suspension was adjusted at the start of the experiment to an optical density, measured at 600 nm, of 0.1. The concentration of the peptide solution in water or ZPT solution (zinc pyrithione, >96%, Sigma Aldrich) dissolved in DMSO was 2% (w/w).
(§2) The following growth was compared: • E. coli suspension and addition of P18 peptide with a final concentration in the 1.5 ml reaction vessel of 50 ppm after 5 minutes, 10 minutes, 20 minutes and 60 minutes • E. coli suspension and addition of P18 peptide with a final concentration in the 1.5 ml reaction vessel of 100 ppm after 5 minutes, 10 minutes, 20 minutes and 60 minutes • E. coli suspension and addition of P18 peptide with a final concentration in the 1.5 ml reaction vessel of 200 ppm after 5 minutes, 10 minutes, 20 minutes and 60 minutes • E. coli suspension and addition of P18 peptide with a final concentration in the 1.5 ml reaction vessel of 500 ppm after 5 minutes, 10 minutes, 20 minutes and 60 minutes • E. coli suspension and addition of P18 peptide with a final concentration in the 1.5 ml reaction vessel of 1000 ppm after 5 minutes, 10 minutes, 20 minutes and 60 minutes • E. coli suspension and addition of ZPT with a final concentration in the 1.5 ml reaction vessel of 50 ppm after 5 minutes, 10 minutes, 20 minutes and 60 minutes • E. coli suspension and addition of ZPT with a final concentration in the 1.5 ml reaction vessel of 100 ppm after 5 minutes, 10 minutes, 20 minutes and 60 minutes • E. coli suspension and addition of ZPT with a final concentration in the 1.5 ml reaction vessel of 200 ppm after 5 minutes, 10 minutes, 20 minutes and 60 minutes • E. coli suspension and addition of ZPT with a final concentration in the 1.5 ml reaction vessel of 500 ppm after 5 minutes, 10 minutes, 20 minutes and 60 minutes • E. coli suspension and addition of ZPT with a final concentration in the 1.5 ml reaction vessel of 1000 ppm after 5 minutes, 10 minutes, 20 minutes and 60 minutes
(§3) The 1.5 ml reaction vessels were incubated at room temperature.
After the incubation times specified, the colony forming units (CFU) were determined by streaking 1 μl of each of the suspensions diluted in 20 μl of LB medium and, after incubation for 2 days, counting the colonies.

[2] = system: Trichophyton rubrum (DSM21146); test: Short-term effect (CFU); type: cell-based
Experimental: as §1
MEP growth medium according to DSMZ:
30 g of malt extract (Becton, Dickinson and Company, Sparks, USA) 3 g of soya peptone (Becton, Dickinson and Company, Sparks, USA) make up to 1 liter, set pH 5.6
The growth test was effected as follows: an agar plate on which the Trichophyton rubrum culture had grown was rinsed with 5 ml of MEP medium.
1.5 ml reaction vessels were each filled with 1 ml of MEP medium and inoculated with 10 μl of the T. rubrum suspension. The concentration of the peptide solution in water or ZPT solution (zinc pyrithione, >96%, Sigma Aldrich) dissolved in DMSO was 2% (w/w).
as §2, with “T. rubrum” for “E. coli”
as §3
After the incubation times specified, the colony forming units (CFU) were determined by streaking 1 μl of each of the suspensions diluted with 20 μl of MEP medium and, after incubation for 2 days, counting the colonies.

H-KWKLFKKIPKFLHLAKKF-NH2 [P18, H-KWKLFKKIPKFLHLAKKF-NH2]
Colony forming units after the incubation time specified ([1]; 50 ppm, 5 minutes): 2000 ± 0 CFU
Colony forming units after the incubation time specified ([1]; 50 ppm, 10 minutes): 2000 ± 0 CFU
Colony forming units after the incubation time specified ([1]; 50 ppm, 20 minutes): 2000 ± 0 CFU
Colony forming units after the incubation time specified ([1]; 50 ppm, 60 minutes): 1208 ± 532 CFU
Colony forming units after the incubation time specified ([1]; 100 ppm, 5 minutes): 2000 ± 0 CFU
Colony forming units after the incubation time specified ([1]; 100 ppm, 10 minutes): 2000 ± 0 CFU
Colony forming units after the incubation time specified ([1]; 100 ppm, 20 minutes): 1836 ± 108 CFU
Colony forming units after the incubation time specified ([1]; 100 ppm, 60 minutes): 726 ± 88 CFU
Colony forming units after the incubation time specified ([1]; 200 ppm, 5 minutes): 2000 ± 0 CFU
Colony forming units after the incubation time specified ([1]; 200 ppm, 10 minutes): 2000 ± 0 CFU
Colony forming units after the incubation time specified ([1]; 200 ppm, 20 minutes): 1310 ± 144 CFU
Colony forming units after the incubation time specified ([1]; 200 ppm, 60 minutes): 192 ± 56 CFU
Colony forming units after the incubation time specified ([1]; 500 ppm, 5 minutes): 2000 ± 0 CFU
Colony forming units after the incubation time specified ([1]; 500 ppm, 10 minutes): 2000 ± 0 CFU
Colony forming units after the incubation time specified ([1]; 500 ppm, 20 minutes): 816 ± 96 CFU
Colony forming units after the incubation time specified ([1]; 500 ppm, 60 minutes): 24 ± 16 CFU
Colony forming units after the incubation time specified ([1]; 1000 ppm, 5 minutes): 2000 ± 0 CFU
Colony forming units after the incubation time specified ([1]; 1000 ppm, 10 minutes): 2000 ± 0 CFU
Colony forming units after the incubation time specified ([1]; 1000 ppm, 20 minutes): 369 ± 383 CFU
Colony forming units after the incubation time specified ([1]; 1000 ppm, 60 minutes): 6 ± 2 CFU
Colony forming units after the incubation time specified ([2]; 50 ppm, 5 minutes): 59 CFU
Colony forming units after the incubation time specified ([2]; 50 ppm, 10 minutes): 55 CFU
Colony forming units after the incubation time specified ([2]; 50 ppm, 20 minutes): 35 CFU
Colony forming units after the incubation time specified ([2]; 50 ppm, 60 minutes): 23 CFU
Colony forming units after the incubation time specified ([2]; 100 ppm, 5 minutes): 41 CFU
Colony forming units after the incubation time specified ([2]; 100 ppm, 10 minutes): 22 CFU
Colony forming units after the incubation time specified ([2]; 100 ppm, 20 minutes): 36 CFU
Colony forming units after the incubation time specified ([2]; 100 ppm, 60 minutes): 18 CFU
Colony forming units after the incubation time specified ([2]; 200 ppm, 5 minutes): 32 CFU
Colony forming units after the incubation time specified ([2]; 200 ppm, 10 minutes): 39 CFU
Colony forming units after the incubation time specified ([2]; 200 ppm, 20 minutes): 24 CFU
Colony forming units after the incubation time specified ([2]; 200 ppm, 60 minutes): 5 CFU
Colony forming units after the incubation time specified ([2]; 500 ppm, 5 minutes): 30 CFU
Colony forming units after the incubation time specified ([2]; 500 ppm, 10 minutes): 18 CFU
Colony forming units after the incubation time specified ([2]; 500 ppm, 20 minutes): 9 CFU
Colony forming units after the incubation time specified ([2]; 500 ppm, 60 minutes): 1 CFU
Colony forming units after the incubation time specified ([2]; 1000 ppm, 5 minutes): 17 CFU
Colony forming units after the incubation time specified ([2]; 1000 ppm, 10 minutes): 18 CFU
Colony forming units after the incubation time specified ([2]; 1000 ppm, 20 minutes): 10 CFU
Colony forming units after the incubation time specified ([2]; 1000 ppm, 60 minutes): 2 CFU
Factor of reduction of the living cell count ([2]; cell count 10 times higher (data not shown)): ≤ 2
Factor of reduction of the living cell count ([2]; concentration range studied (50-1000 ppm), first 60 minutes): ≤ 20

zinc pyrithione [ZPT]
Inhibition in words ([1]; 50-1000 ppm, up to 60 minutes): no significant inhibition
Colony forming units after the incubation time specified ([1]; 50 ppm, 5 minutes): 2000 ± 0 CFU
Colony forming units after the incubation time specified ([1]; 50 ppm, 10 minutes): 2000 ± 0 CFU
Colony forming units after the incubation time specified ([1]; 50 ppm, 20 minutes): 2000 ± 0 CFU
Colony forming units after the incubation time specified ([1]; 50 ppm, 60 minutes): 2000 ± 0 CFU
Colony forming units after the incubation time specified ([1]; 100 ppm, 5 minutes): 2000 ± 0 CFU
Colony forming units after the incubation time specified ([1]; 100 ppm, 10 minutes): 2000 ± 0 CFU
Colony forming units after the incubation time specified ([1]; 100 ppm, 20 minutes): 2000 ± 0 CFU
Colony forming units after the incubation time specified ([1]; 100 ppm, 60 minutes): 2000 ± 0 CFU
Colony forming units after the incubation time specified ([1]; 200 ppm, 5 minutes): 2000 ± 0 CFU
Colony forming units after the incubation time specified ([1]; 200 ppm, 10 minutes): 2000 ± 0 CFU
Colony forming units after the incubation time specified ([1]; 200 ppm, 20 minutes): 2000 ± 0 CFU
Colony forming units after the incubation time specified ([1]; 200 ppm, 60 minutes): 2000 ± 0 CFU
Colony forming units after the incubation time specified ([1]; 500 ppm, 5 minutes): 2000 ± 0 CFU
Colony forming units after the incubation time specified ([1]; 500 ppm, 10 minutes): 2000 ± 0 CFU
Colony forming units after the incubation time specified ([1]; 500 ppm, 20 minutes): 2000 ± 0 CFU
Colony forming units after the incubation time specified ([1]; 500 ppm, 60 minutes): 2000 ± 0 CFU
Colony forming units after the incubation time specified ([1]; 1000 ppm, 5 minutes): 2000 ± 0 CFU
Colony forming units after the incubation time specified ([1]; 1000 ppm, 10 minutes): 2000 ± 0 CFU
Colony forming units after the incubation time specified ([1]; 1000 ppm, 20 minutes): 2000 ± 0 CFU
Colony forming units after the incubation time specified ([1]; 1000 ppm, 60 minutes): 2000 ± 0 CFU
Inhibition in words ([2]; 50-1000 ppm, up to 60 minutes): no significant inhibition
Colony forming units after the incubation time specified ([2]; 50 ppm, 5 minutes): 44 CFU
Colony forming units after the incubation time specified ([2]; 50 ppm, 10 minutes): 51 CFU
Colony forming units after the incubation time specified ([2]; 50 ppm, 20 minutes): 51 CFU
Colony forming units after the incubation time specified ([2]; 50 ppm, 60 minutes): 55 CFU
Colony forming units after the incubation time specified ([2]; 100 ppm, 5 minutes): 38 CFU
Colony forming units after the incubation time specified ([2]; 100 ppm, 10 minutes): 54 CFU
Colony forming units after the incubation time specified ([2]; 100 ppm, 20 minutes): 50 CFU
Colony forming units after the incubation time specified ([2]; 100 ppm, 60 minutes): 48 CFU
Colony forming units after the incubation time specified ([2]; 200 ppm, 5 minutes): 44 CFU
Colony forming units after the incubation time specified ([2]; 200 ppm, 10 minutes): 51 CFU
Colony forming units after the incubation time specified ([2]; 200 ppm, 20 minutes): 56 CFU
Colony forming units after the incubation time specified ([2]; 200 ppm, 60 minutes): 49 CFU
Colony forming units after the incubation time specified ([2]; 500 ppm, 5 minutes): 43 CFU
Colony forming units after the incubation time specified ([2]; 500 ppm, 10 minutes): 47 CFU
Colony forming units after the incubation time specified ([2]; 500 ppm, 20 minutes): 51 CFU
Colony forming units after the incubation time specified ([2]; 500 ppm, 60 minutes): 44 CFU
Colony forming units after the incubation time specified ([2]; 1000 ppm, 5 minutes): 52 CFU
Colony forming units after the incubation time specified ([2]; 1000 ppm, 10 minutes): 62 CFU
Colony forming units after the incubation time specified ([2]; 1000 ppm, 20 minutes): 47 CFU
Colony forming units after the incubation time specified ([2]; 1000 ppm, 60 minutes): 48 CFU
